These results are taken from patent publication US5084453A, “1-carboxy-1-vinyloxyimino aminothiazole cephalosporin derivatives” (priority 1988, dated 1992).

What all share (test): in vitro antibacterial activity, agar plate dilution method
Common to all, as to assay type: cell-based

One experiment has as its system Ps. aeruginosa AKR17. The note with it: Pseudomonas aeruginosa, AKR17; 10^6 CFU/ml; Mueller Hinton agar, 37° C., 16 hours; read-out: MIC. On the procedure:
(§1) Now, the in vitro antibacterial activities of the compounds of the present invention against various microorganisms, were measured by the following agar plate dilution method.
(§2) One platinum loopfull of each test microorganism incubated overnight in Mueller Hinton broth, was inoculated to Mueller Hinton agar (MH agaer). Such culture media containing various antibiotics in various concentrations were prepared. After incubation at 37° C. for 16 hours, the minimum inhibitory concentrations (MIC μg/ml) were measured.

Another experiment relates to K. pneumoniae PC1-602. The note with it: Klebsiella pneumoniae. On the procedure: as §1, §2
Another experiment concerns P. vulgaris No. 33*. The note with it: Proteus vulgaris. How it is done: as §1, §2
A further experiment relates to K. oxytoca GN10650*. The note with it: Klebsiella oxytoca, GN10650, 16 h. How it is done:
as §1, §2

A further experiment concerns P. vulgaris HX-19. The settings on record: Proteus vulgaris. How it is done: as §1, §2
Another experiment deals with Ps. aeruginosa AK 109. The settings on record: Pseudomonas aeruginosa. On the procedure:
as §1, §2

The subject of a further experiment is E. cloacae Nek 39*. The settings on record: Enterobacter cloacae. How it is done: as §1, §2
Another experiment has as its system E. coli CSH(RE45)*. The settings on record: Escherichia coli; 10^6 CFU/ml; β-Lactamase-producing strain; 37° C., 16 hours; read-out: MIC. On the procedure: as §1, §2
Another experiment relates to E. coli NIHJ JC2. The note with it: Escherichia coli, NIHJJC2; 10^6 CFU/ml; Mueller Hinton agar, 37° C., 16 hours; read-out: MIC. How it is done:
as §1, §2

For another experiment, the system named is M. morganii GN5407*. The settings on record: Morganella morganii. On the procedure:
as §1, §2

The next experiment concerns E. coli CSH2(RK1)*. The note with it: Escherichia coli, 16 h. On the procedure: as §1, §2
In another experiment the test system is S. marcescens IAM 1184. The note with it: Serratia marcescens. On the procedure:
as §1, §2

Another experiment concerns E. cloacae 963. The note with it: Enterobacter cloacae, 963, 16 h. On the procedure: as §1, §2
The subject of another experiment is K. pneumoniae No. 42*. The note with it: Klebsiella pneumoniae, 16 h. How it is done: as §1, §2
A further experiment deals with Ps. aeruginosa IFO3445. The settings on record: Pseudomonas aeruginosa, IFO3445, 16 h. On the procedure:
as §1, §2

For a further experiment, the system named is E. coli GN5482*. The settings on record: Escherichia coli. How it is done: as §1, §2
The subject of another experiment is Ps. cepacia 23. On the procedure: as §1, §2
In another experiment the test system is S. aureus 209P NIHJ-JC1. The note with it: Staphylococcus aureus, 16 h. How it is done: as §1, §2
The subject of another experiment is A. calcoaceticus No. 4. The note with it: Acinetobacter calcoaceticus, NO.4; 10^6 CFU/ml; Mueller Hinton agar, 37° C., 16 hours; read-out: MIC. How it is done: as §1, §2
A further experiment relates to S. marcescens No. 16-2*. The note with it: Serratia marcescens. How it is done: as §1, §2
Where [1] appears, read: PC1602, 10^6 CFU/ml, Mueller Hinton agar, 37° C., 16 hours, read-out: MIC.
Where [2] appears, read: IAM1184, 10^6 CFU/ml, Mueller Hinton agar, 37° C., 16 hours, read-out: MIC.
[3] abbreviates: HX19, 10^6 CFU/ml, Mueller Hinton agar, 37° C., 16 hours, read-out: MIC.
Where [4] appears, read: AK109, 10^6 CFU/ml, Mueller Hinton agar, 37° C., 16 hours, read-out: MIC.
Setting [5] is: 10^6 CFU/ml, β-Lactamase-producing strain, 37° C., 16 hours, read-out: MIC.

The structures appear in SMILES notation. In brackets after ≈: the same amount, converted by molar mass. Like-named read-outs stand apart in the source and are kept apart here.

Regarding `C=C(O/N=C(\C(=O)N[C@@H]1C(=O)N2C(C(=O)[O-])=C(C[n+]3cccc4c3CCC4)CS[C@H]12)c1csc(N)n1)C(=O)O` [Example 2, 7β-[2-(2-aminothiazol-4-yl)-2-(1-carboxy-1-vinyloxyimino)acetamido]-3-(2,3-cychlopenteno-pyridinio)methyl-3-cephem-4-carboxylate (syn-isomer)], the MIC stood at 100 µg/mL (≈ 175 µM) in the experiment with Ps. aeruginosa AKR17; 0.0125 µg/mL (≈ 0.0219 µM) in the experiment with K. pneumoniae PC1-602 (setting [1]); 0.025 µg/mL (≈ 0.0438 µM) in the experiment with P. vulgaris No. 33* (16 h); 0.1 µg/mL (≈ 0.175 µM) in the experiment on K. oxytoca GN10650*; 0.025 µg/mL (≈ 0.0438 µM) with P. vulgaris HX-19 (HX19, 16 h); 1.56 µg/mL (≈ 2.73 µM) in the experiment with Ps. aeruginosa AK 109 (AK109, 16 h). For the same compound, the MIC against E. cloacae Nek 39* (16 h) was determined as 0.2 µg/mL (≈ 0.351 µM); in the experiment with E. coli CSH(RE45)*, 0.78 µg/mL (≈ 1.37 µM); in the experiment with E. coli NIHJ JC2, 0.05 µg/mL (≈ 0.0876 µM); in the experiment on M. morganii GN5407* (GN5407, 16 h), 0.025 µg/mL (≈ 0.0438 µM); against E. coli CSH2(RK1)* it was 0.025 µg/mL (≈ 0.0438 µM); in the experiment on S. marcescens IAM 1184 (setting [2]), 0.0125 µg/mL (≈ 0.0219 µM). Further, the MIC against E. cloacae 963 stood at 0.05 µg/mL (≈ 0.0876 µM); in the experiment with K. pneumoniae No. 42* it was 0.39 µg/mL (≈ 0.683 µM); against Ps. aeruginosa IFO3445, 1.56 µg/mL (≈ 2.73 µM); with E. coli GN5482* (GN5482, 16 h), 0.1 µg/mL (≈ 0.175 µM); against Ps. cepacia 23 (Burkholderia cepacia, 23, 16 h), 0.39 µg/mL (≈ 0.683 µM); in the experiment with S. aureus 209P NIHJ-JC1, 1.56 µg/mL (≈ 2.73 µM). The MIC was 3.12 µg/mL (≈ 5.47 µM) in the experiment on A. calcoaceticus No. 4 and 0.78 µg/mL (≈ 1.37 µM) in the experiment with S. marcescens No. 16-2* (16 h).
`C=C(O/N=C(\C(=O)N[C@@H]1C(=O)N2C(C(=O)[O-])=C(C[n+]3cccc(C(=O)O)c3)CS[C@H]12)c1csc(N)n1)C(=O)O` [Example 3, 7β-[2-(2-aminothiazol-4-yl)-2-(1-carboxy-1-vinyloxyimino)acetamido]-3-(3-carboxy-1-pyridinio)methyl-3-cephem-4-carboxylate (syn-isomer)]: the MIC is greater than 100 µg/mL in the experiment on Ps. aeruginosa AKR17; 0.025 µg/mL (≈ 0.0435 µM) in the experiment on K. pneumoniae PC1-602 (PC1602, 16 h); 0.05 µg/mL (≈ 0.087 µM) with P. vulgaris No. 33* (16 h); 0.2 µg/mL (≈ 0.348 µM) in the experiment on K. oxytoca GN10650*; 0.0125 µg/mL (≈ 0.0218 µM) with P. vulgaris HX-19 (setting [3]); 100 µg/mL (≈ 174 µM) with Ps. aeruginosa AK 109 (setting [4]). Further, the MIC turned out to be 3.12 µg/mL (≈ 5.43 µM) in the experiment with E. cloacae Nek 39* (setting [5]); 0.05 µg/mL (≈ 0.087 µM) with E. coli CSH(RE45)*; 0.2 µg/mL (≈ 0.348 µM) with E. coli NIHJ JC2; 0.05 µg/mL (≈ 0.087 µM) against M. morganii GN5407* (GN5407, 16 h); 0.05 µg/mL (≈ 0.087 µM) against E. coli CSH2(RK1)*; 0.05 µg/mL (≈ 0.087 µM) in the experiment on S. marcescens IAM 1184 (IAM1184, 16 h). In addition, the MIC came to 0.1 µg/mL (≈ 0.174 µM) with E. cloacae 963; 0.39 µg/mL (≈ 0.679 µM) with K. pneumoniae No. 42*; 6.25 µg/mL (≈ 10.9 µM) in the experiment with Ps. aeruginosa IFO3445; 3.12 µg/mL (≈ 5.43 µM) in the experiment with E. coli GN5482* (GN5482, 10^6 CFU/ml, β-Lactamase-producing strain, 37° C., 16 hours, read-out: MIC); 6.25 µg/mL (≈ 10.9 µM) with Ps. cepacia 23 (Burkholderia cepacia, 23, 16 h); 6.25 µg/mL (≈ 10.9 µM) in the experiment on S. aureus 209P NIHJ-JC1. Moreover, the MIC in the experiment with A. calcoaceticus No. 4 was 25 µg/mL (≈ 43.5 µM); in the experiment with S. marcescens No. 16-2* (setting [5]), 3.12 µg/mL (≈ 5.43 µM).
For the compound `C=C(O/N=C(\C(=O)N[C@@H]1C(=O)N2C(C(=O)[O-])=C(C[n+]3cccc(C(N)=O)c3)CS[C@H]12)c1csc(N)n1)C(=O)O` [Example 4, 7β-[2-(2-aminothiazol-4-yl)-2-(1-carboxy-1-vinyloxyimino)acetamido] vinyloxyimino)acetamido]-3-(3-carbamoyl-1-pyridinio)methyl-3-cephem-4-carboxylate (syn-isomer)], the MIC is greater than 100 µg/mL with Ps. aeruginosa AKR17; 0.0125 µg/mL (≈ 0.0218 µM) with K. pneumoniae PC1-602 (setting [1]); 0.0125 µg/mL (≈ 0.0218 µM) in the experiment with P. vulgaris No. 33* (setting [5]); 0.1 µg/mL (≈ 0.174 µM) in the experiment on K. oxytoca GN10650*; 0.0125 µg/mL (≈ 0.0218 µM) with P. vulgaris HX-19 (setting [3]); 12.5 µg/mL (≈ 21.8 µM) in the experiment on Ps. aeruginosa AK 109 (setting [4]). Moreover, the MIC stood at 0.2 µg/mL (≈ 0.349 µM) against E. cloacae Nek 39* (16 h); 0.025 µg/mL (≈ 0.0436 µM) in the experiment with E. coli CSH(RE45)*; 0.05 µg/mL (≈ 0.0872 µM) with E. coli NIHJ JC2; 0.0125 µg/mL (≈ 0.0218 µM) with M. morganii GN5407* (GN5407, 10^6 CFU/ml, β-Lactamase-producing strain, 37° C., 16 hours, read-out: MIC); 0.025 µg/mL (≈ 0.0436 µM) against E. coli CSH2(RK1)*; 0.0125 µg/mL (≈ 0.0218 µM) with S. marcescens IAM 1184 (setting [2]). Moreover, the MIC against E. cloacae 963 was 0.05 µg/mL (≈ 0.0872 µM); in the experiment with K. pneumoniae No. 42*, 0.1 µg/mL (≈ 0.174 µM); against Ps. aeruginosa IFO3445, 1.56 µg/mL (≈ 2.72 µM); against E. coli GN5482* (GN5482, 16 h), 0.2 µg/mL (≈ 0.349 µM); with Ps. cepacia 23 (Burkholderia cepacia, 23, 10^6 CFU/ml, Mueller Hinton agar, 37° C., 16 hours, read-out: MIC) it was 3.12 µg/mL (≈ 5.44 µM); against S. aureus 209P NIHJ-JC1, 1.56 µg/mL (≈ 2.72 µM). Further, the MIC in the experiment with A. calcoaceticus No. 4 is 3.12 µg/mL (≈ 5.44 µM); with S. marcescens No. 16-2* (16 h) it was 0.78 µg/mL (≈ 1.36 µM).
